Literature values as cited in PubChem BioAssay AID1259409 (Chemical Carcinogenesis Research Information System (CCRIS), 2018).

Test system: rodent chemically induced tumor inhibition, incidence and multiplicity
Assay: CCRIS tumor inhibitor studies
Details: Carcinogen: 7,12-DIMETHYLBENZ[A]ANTHRACENE, 57-97-6

In the case of CC1=C(/C=C/C(C)=C/C=C/C(C)=C/C(=O)O)C(C)(C)CCC1, the “tumour outcome (control, treated, inhibition, significance)” value (Dose [Inhibitor]: 0, 2 NMOL IN 200 µL ACETONE APPLIED 30 MIN PRIOR TO EACH PROMOTER DOSE 2/WK FOR 25 WK BEGINNING 1 WK POST CARCINOGEN DOS, Route [Inhibitor]: DERMAL, Species: MOUSE, Strain/Sex: CD-1/FEMALE, Target Tissue: Type of Lesion: SKIN: PAPILLOMA, Dose [Carcinogen]: 200 NMOL IN 200 µL ACETONE ONCE, Promoter: 12-O-TETRADECANOYLPHORBOL-13-ACETATE, 16561-29-8) is listed as 90%, 83%, 8%, not calculated, the “tumour outcome (control, treated, inhibition, significance)” value (Dose [Inhibitor]: 0, 2 NMOL IN 200 µL ACETONE APPLIED 30 MIN PRIOR TO EACH PROMOTER DOSE 2/WK FOR 25 WK BEGINNING 1 WK POST CARCINOGEN DOS, Route [Inhibitor]: DERMAL, Species: MOUSE, Strain/Sex: CD-1/FEMALE, Target Tissue: Type of Lesion: SKIN: PAPILLOMA, Dose [Carcinogen]: 200 NMOL IN 200 µL ACETONE ONCE, Promoter: MIREX, 2385-85-5) is listed as 100%, 100%, 0%, not significant and the “tumour outcome (control, treated, inhibition, significance)” value (Dose [Inhibitor]: 0, 3 NMOL IN 0.1 ML ACETONE 2/WK APPLIED 40 MIN PRIOR TO EACH PROMOTER DOSE FOR 20 WK (STUDY DURATION: 21 WK), Route [Inhibitor]: DERMAL, Species: MOUSE, Strain/Sex: ICR/FEMALE, Target Tissue: Type of Lesion: SKIN: PAPILLOMA, Dose [Carcinogen]: 100 UG IN 0.1 ML ACETONE ONCE, Promoter: 12-0-TETRADECANOYLPHORBOL-13-ACETATE, 16561-29-8) is listed as 99%, 68%, 31%, p<0.01. For the same molecule, the “tumour outcome (control, treated, inhibition, significance)” value (Dose [Inhibitor]: 0, 5 NMOL IN 200 µL ACETONE APPLIED 30 MIN PRIOR TO EACH PROMOTER DOSE 2/WK FOR 25 WK BEGINNING 1 WK POST CARCINOGEN DOS, Route [Inhibitor]: DERMAL, Species: MOUSE, Strain/Sex: CD-1/FEMALE, Target Tissue: Type of Lesion: SKIN: PAPILLOMA, Dose [Carcinogen]: 200 NMOL IN 200 µL ACETONE ONCE, Promoter: 12-O-TETRADECANOYLPHORBOL-13-ACETATE, 16561-29-8) was 90%, 76%, 16%, not calculated, the “tumour outcome (control, treated, inhibition, significance)” value (Dose [Inhibitor]: 0, 5 NMOL IN 200 µL ACETONE APPLIED 30 MIN PRIOR TO EACH PROMOTER DOSE 2/WK FOR 25 WK BEGINNING 1 WK POST CARCINOGEN DOS, Route [Inhibitor]: DERMAL, Species: MOUSE, Strain/Sex: CD-1/FEMALE, Target Tissue: Type of Lesion: SKIN: PAPILLOMA, Dose [Carcinogen]: 200 NMOL IN 200 µL ACETONE ONCE, Promoter: MIREX, 2385-85-5) was 100%, 100%, 0%, not significant and the “tumour outcome (control, treated, inhibition, significance)” value (Dose [Inhibitor]: 0, 10 UG IN 0.2 ML ACETONE 1/WK FOR 5 WK APPLIED 60 MIN PRIOR TO EACH PROMOTER DOSE BEGINNING 1 WK POST CARCINOGEN DOSE, Route [Inhibitor]: DERMAL, Species: MOUSE, Strain/Sex: SENCAR/FEMALE, Target Tissue: Type of Lesion: SKIN: PAPILLOMA, Dose [Carcinogen]: 20 UG IN 0.2 ML ACETONE ONCE, Promoter: 12-O-TETRADECANOYLPHORBOL-13-ACETATE, 16561-29-8) was 50%, 10%, 80%, p<0.0001. The “tumour outcome (control, treated, inhibition, significance)” value (Dose [Inhibitor]: 0, 10 UG IN 0.2 ML ACETONE 1/WK FOR 20 WK APPLIED 60 MIN PRIOR TO EACH PROMOTER DOSE BEGINNING 1 WK POST CARCINOGEN DOSE, Route [Inhibitor]: DERMAL, Species: MOUSE, Strain/Sex: SENCAR/FEMALE, Target Tissue: Type of Lesion: SKIN: PAPILLOMA, Dose [Carcinogen]: 20 UG IN 0.2 ML ACETONE ONCE, Promoter: 12-O-TETRADECANOYLPHORBOL-13-ACETATE, 16561-29-8) was 95%, 55%, 42%, p<0.05, the “tumour outcome (control, treated, inhibition, significance)” value (Dose [Inhibitor]: 0, 10 UG IN 0.2 ML ACETONE 2/WK FOR 19 WK BEGINNING 15 WK POST PROMOTION TREATMENT (STUDY DURATION: 49 WK), Route [Inhibitor]: DERMAL, Species: MOUSE, Strain/Sex: SENCAR/FEMALE, Target Tissue: Type of Lesion: SKIN: CARCINOMA, Dose [Carcinogen]: 20 UG IN 0.2 ML ACETONE ONCE, Promoter: 12-O-TETRADECANOYLPHORBOL-13-ACETATE, 16561-29-8) was 99%, 54%, 45%, p<0.01 and the “tumour outcome (control, treated, inhibition, significance)” value (Dose [Inhibitor]: 0, 10 UG IN 0.2 ML ACETONE 2/WK FOR 19 WK BEGINNING POST PROMOTION TREATMENT (STUDY DURATION: 49 WK), Route [Inhibitor]: DERMAL, Species: MOUSE, Strain/Sex: SENCAR/FEMALE, Target Tissue: Type of Lesion: SKIN: CARCINOMA, Dose [Carcinogen]: 20 UG IN 0.2 ML ACETONE ONCE, Promoter: 12-O-TETRADECANOYLPHORBOL-13-ACETATE, 16561-29-8) was 88%, 52%, 41%, p<0.01. The “tumour outcome (control, treated, inhibition, significance)” value (Dose [Inhibitor]: 0, 10 UG IN 0.2 ML ACETONE 2/WK FOR 19 WK BEGINNING POST PROMOTION TREATMENT (STUDY DURATION: 49 WK), Route [Inhibitor]: DERMAL, Species: MOUSE, Strain/Sex: SENCAR/FEMALE, Target Tissue: Type of Lesion: SKIN: CARCINOMA, Dose [Carcinogen]: 20 UG IN 0.2 ML ACETONE ONCE, Promoter: MEZEREIN, 34807-41-5) was 100%, 65%, 35%, p<0.01, the “tumour outcome (control, treated, inhibition, significance)” value (Dose [Inhibitor]: 0, 10 UG IN 0.2 ML ACETONE 2/WK FOR 20 WK APPLIED 60 MIN PRIOR TO EACH PROMOTER DOSE BEGINNING 1 WK POST CARCINOGEN DOSE, Route [Inhibitor]: DERMAL, Species: MOUSE, Strain/Sex: SENCAR/FEMALE, Target Tissue: Type of Lesion: SKIN: PAPILLOMA, Dose [Carcinogen]: 20 UG IN 0.2 ML ACETONE ONCE, Promoter: MEZEREIN, 34807-41-5) was 86%, 56%, 35%, p<0.05 and the “tumour outcome (control, treated, inhibition, significance)” value (Dose [Inhibitor]: 0, 30 UG/G OF DIET FOR DURATION OF STUDY (STUDY DURATION: 35 WK), Route [Inhibitor]: ORAL, Species: MOUSE, Strain/Sex: SENCAR/FEMALE, Target Tissue: Type of Lesion: SKIN: PAPILLOMA, Dose [Carcinogen]: 25.5 UG IN 0.2 ML ACETONE 1/WK FOR 20 WK, Promoter: NONE USED) was 100%, 90%, 10%, not significant (at 20 wk). The “tumour outcome (control, treated, inhibition, significance)” value (Dose [Inhibitor]: 0, 30 UG/G OF DIET FOR DURATION OF STUDY (STUDY DURATION: 35 WK), Route [Inhibitor]: ORAL, Species: RAT, Strain/Sex: SENCAR/FEMALE, Target Tissue: Type of Lesion: SKIN: CARCINOMA, Dose [Carcinogen]: 25.5 UG IN 0.2 ML ACETONE 1/WK FOR 20 WK, Promoter: NONE USED) was 24%, 19%, 21%, not significant, the “tumour outcome (control, treated, inhibition, significance)” value (Dose [Inhibitor]: 0, 30 UG/G OF DIET FOR DURATION OF STUDY (STUDY DURATION: 40 WK), Route [Inhibitor]: ORAL, Species: MOUSE, Strain/Sex: SENCAR/FEMALE, Target Tissue: Type of Lesion: SKIN: CARCINOMA, Dose [Carcinogen]: 20 UG IN 0.2 ML OF ACETONE ONCE, Promoter: 12-O-TETRADECANOYLPHORBOL-13-ACETATE, 16561-29-8) was 30%, 11%, 63%, p=0.027 and the “tumour outcome (control, treated, inhibition, significance)” value (Dose [Inhibitor]: 0, 30 UG/G OF DIET FOR DURATION OF STUDY (STUDY DURATION: 40 WK), Route [Inhibitor]: ORAL, Species: MOUSE, Strain/Sex: SENCAR/FEMALE, Target Tissue: Type of Lesion: SKIN: CARCINOMA, Dose [Carcinogen]: 20 UG IN 0.2 ML OF ACETONE ONCE, Promoter: MEZEREIN, 34807-41-5) was 31%, 5%, 84%, p=0.002. For the same molecule, the “tumour outcome (control, treated, inhibition, significance)” value (Dose [Inhibitor]: 1.7 NMOL IN 0.2 ML ACETONE 1 HR PRIOR TO EACH PROMOTER DOSE FOR 12 WK (STUDY DURATION: 14 WK), Route [Inhibitor]: DERMAL, Species: MOUSE, Strain/Sex: SENCAR/FEMALE, Target Tissue: Type of Lesion: SKIN: PAPILLOMA, Dose [Carcinogen]: 200 NMOL IN 0.2 ML ACETONE ONCE, Promoter: 12-O-TETRADECANOYLPHORBOL-13-ACETATE, 16561-29-8) was 100%, 100%, 0%, not calculated, the “tumour outcome (control, treated, inhibition, significance)” value (Dose [Inhibitor]: 1.7 NMOL IN 0.2 ML ACETONE 1 HR PRIOR TO EACH PROMOTER DOSE FOR 20 WK (STUDY DURATION: 22 WK), Route [Inhibitor]: DERMAL, Species: MOUSE, Strain/Sex: CD-1/FEMALE, Target Tissue: Type of Lesion: SKIN: PAPILLOMA, Dose [Carcinogen]: 200 NMOL IN 0.2 ML ACETONE ONCE, Promoter: 12-O-TETRADECANOYLPHORBOL-13-ACETATE, 16561-29-8) was 94%, 80%, 15%, not calculated and the “tumour outcome (control, treated, inhibition, significance)” value (Dose [Inhibitor]: 1.7 NMOL IN 0.2 ML ACETONE 2/WK 1 HR BEFORE EACH PROMOTER APPLICATION STARTING 14 D AFTER CARCINOGEN APPLICATION AND CON, Route [Inhibitor]: DERMAL, Species: MOUSE, Strain/Sex: CD-1/FEMALE, Target Tissue: Type of Lesion: SKIN: PAPILLOMA, Dose [Carcinogen]: 0.2 UMOL IN 0.2 ML ACETONE ONCE, Promoter: 12-O-TETRADECANOYLPHORBOL-13-ACETATE, 16561-29-8) was 100%, 90%, 10%, not significant. For the same molecule, the “tumour outcome (control, treated, inhibition, significance)” value (Dose [Inhibitor]: 3, 30 UG IN DIET FOR DURATION OF STUDY (STUDY DURATION: 44 WK), Route [Inhibitor]: ORAL, Species: MOUSE, Strain/Sex: SENCAR/FEMALE, Target Tissue: Type of Lesion: SKIN: PAPILLOMA, Dose [Carcinogen]: 20 UG IN 0.2 ML ACETONE ONCE, Promoter: 12-O-TETRADECANOYLPHORBOL-13-ACETATE, 16561-29-8) was 100%, 100%, 0%, not significant, the “tumour outcome (control, treated, inhibition, significance)” value (Dose [Inhibitor]: 3, 30 UG/G OF DIET FOR DURATION OF STUDY BEGINNING POST CARCINOGEN DOSE (STUDY DURATION: 40 WK), Route [Inhibitor]: ORAL, Species: MOUSE, Strain/Sex: SENCAR/FEMALE, Target Tissue: Type of Lesion: SKIN: CARCINOMA, Dose [Carcinogen]: 20 UG IN 0.2 ML ACETONE ONCE AT 7 WK OF AGE, Promoter: 12-O-TETRADECANOYLPHORBOL-13-ACETATE, 16561-29-8) was 12/38 (32%), 3/30 (10%), 69%, p<0.05 and the “tumour outcome (control, treated, inhibition, significance)” value (Dose [Inhibitor]: 3, 30 UG/G OF DIET FOR DURATION OF STUDY BEGINNING POST CARCINOGEN DOSE (STUDY DURATION: 40 WK), Route [Inhibitor]: ORAL, Species: MOUSE, Strain/Sex: SENCAR/FEMALE, Target Tissue: Type of Lesion: SKIN: CARCINOMA, Dose [Carcinogen]: 20 UG IN 0.2 ML ACETONE ONCE AT 7 WK OF AGE, Promoter: MEZEREIN, 34807-41-5) was 12/39 (31%), 5/40 (13%), 58%, p<0.05.
